Assay [1] relates to Listeria monocytogenes. The assay is described as follows: Bactericidal activity towards Listeria monocytogenes in milk. It is filed as cell-based. To be noted: for % Survival 2 hr: L. monocytogenes in milk at 37° C. As to the method:
(§1) All tests in the following examples were performed at 37° C. The efficacy of the enhanced broad range bactericides was determined by assaying bactericidal activity as measured by the percent bacterial survival after treatment with the bactericide. Generally, after incubation of a 10^7 cell per ml suspension of target species with the novel bactericide for specified lengths of time, bacteria were collected by centrifugation for 2 minutes. […] Surviving bacteria were determined by scoring colony forming units (CFU) after incubation for 24-48 hours at 37° C. An effective bactericide according to this invention is one which allows less than 0.1% of the initial viable count of the bacteria to survive.
An example of where the application of nisin is limited by its available activity is illustrated by the data in Table 15B.
(§2) Incubations were in milk at 37° C.

Another assay deals with Streptococcus agalactiae. As to the kind of experiment: Bactericidal activity towards Streptococcus agalactiae in milk. It is filed as cell-based. To be noted: for % survival at 2h: S. agalactiae in milk at 37° C. The protocol: as §1
However, the combination of the two agents, 0.1% monolaurin and nisin 0.2 μg/ml, is extremely potent towards S. agalactiae. […] Thus, when the application of nisin is limited by its available activity, a bactericide comprising nisin with a surfactant can be expected to be more useful.
as §2

For the next assay, the system named is E. coli. The assay is described as follows: Bactericidal activity, percent bacterial survival of E. coli suspension. It is filed as cell-based, Escherichia coli. To be noted: for Percentage E. coli Survival at 2 hours: 20 mM Tris pH 8.0. As to the method: (§3) All tests in the following examples were performed at 37° C. The efficacy of the enhanced broad range bactericides was determined by assaying bactericidal activity as measured by the percent bacterial survival after treatment with the bactericide. Generally, after incubation of a 10^7 cell per ml suspension of target species with the novel bactericide for specified lengths of time, bacteria were collected by centrifugation for 2 minutes. […] Surviving bacteria were determined by scoring colony forming units (CFU) after incubation for 24-48 hours at 37° C.
The effects of the bactericide were measured as a function of percentage bacteria survival after 2 hours.
Incubations were performed in 20 mM Tris, […] at 37° C.

Another assay relates to K. pneumoniae. As to the kind of experiment: Bactericidal activity, percent bacterial survival of K. pneumoniae suspension. The format is cell-based, Klebsiella pneumoniae. To be noted: Nisin 0, EDTA 20 mM, 20 mM Tris pH 8.0. The protocol:
as §3
The effect was measured as a function of percentage bacterial survival after 2 hours.

The next assay concerns Streptococcus mutans. The assay is described as follows: Bactericidal activity and kinetics towards Streptococcus mutans in Tris buffer. It is filed as cell-based. To be noted: S. mutans, Nisin 0 with 1.0 mM EDTA, pH 7.3.
The subject of the next assay is Coryneform bacteria. As to the kind of experiment: Bactericidal activity towards Coryneform bacteria. The format is cell-based. As to the method:
as §1
(§4) Incubations were performed in 20 mM TrisHCl, pH 8.0 at 37° C.

The test system of another assay is Staphylococcus aureus. As to the kind of experiment: Bactericidal activity towards Staphylococcus aureus, percent survival. It is filed as cell-based. To be noted: S. aureus. The protocol:
as §1
Incubations were performed in 50 mM sodium acetate buffer, pH 5.0 or 20 m
TrisHCl buffer, pH 8.0 at 37° C.

The subject of a further assay is S. typhimurium. As to the kind of experiment: Bactericidal activity, percent bacterial survival of S. typhimurium suspension. The format is cell-based, Salmonella typhimurium. To be noted: for % Survival at 2 hours: S. typhimurium. As to the method:
as §3
The control (Test #1) is identical to the control of Example 1 (Table 1).

Assay [2] concerns S. typhimurium on chicken muscle. The assay is described as follows: Bactericidal activity towards S. typhimurium on chicken muscle (unadhered cells). It is filed as cell-based, Salmonella typhimurium. The protocol:
Incubations were performed in either 50 mM sodium acetate, pH 5.0, or 20 mM Tris, pH 8.0 at 37° C.
Cubes of chicken muscle were cleansed with sodium hypochlorite and povidone iodine prior to use. To inoculate the tissue, the cubes of chicken muscle were dipped into a 10^8 cells/ml suspension of S. typhimurium in 20 mM Tris HCl, pH 8.0. Excess moisture was removed from dipped cubes by tapping. The chicken samples were placed into sufficient buffer containing the nisin composition to cover the tissue and incubated for 2 hours at 37° C. after which the tissue was removed to sufficient Phage buffer to cover the tissue. The bacteria remaining in the test solution were collected by centrifugation, washed with Phage buffer, and combined with bacteria washed from the tissue by Phage buffer. The combined samples (termed "unadhered" cells) were serially diluted and 100 μl aliquots were plated for determination of surviving bacteria.
(§5) Cubes of chicken muscle were cleansed with sodium hypochlorite and povidone iodine prior to use. To inoculate the tissue, the cubes of chicken muscle were dipped into a 10^8 cells/ml suspension of S. typhimurium in 20 mM Tris HCl, pH 8.0. Excess moisture was removed from dipped cubes by tapping. The tissue was placed into sufficient buffer containing the nisin compositions to cover the tissue, and incubated for 2 hours at 37° C. after which the tissue was removed to sufficient Phage buffer to cover the tissue. The bacteria remaining in the test solution were collected by centrifugation, washed with Phage buffer, and combined with bacteria washed from the tissue by Phage buffer. The combined samples (termed "unadhered" cells) were serially diluted and 100 μl aliquots were plated for determination of surviving bacteria.
as §5, with “cleaned” for “cleansed”, “50” for “20”, “sodium acetate buffer,” for “Tris HCl,”, “5.0.” for “8.0.”, “containing” for “containing the”

For assay [3], the system named is Listeria monocytogenes. As to the kind of experiment: Bactericidal activity towards Listeria monocytogenes in Tris buffer. It is filed as cell-based. To be noted: L. monocytogenes; pH 8.0, Nisin 0, EDTA 1.0 mM. The protocol: as §1, §4

Experimental for Streptococcus mutans: All tests in the following examples were performed at 37° C. The efficacy of the enhanced broad range bactericides was determined by assaying bactericidal activity as measured by the percent bacterial survival after treatment with the bactericide. Generally, after incubation of a 10^7 cell per ml suspension of target species with the novel bactericide for specified lengths of time, bacteria were collected by centrifugation for 2 minutes. The bacterial pellet was washed free of the bactericide with a rescue buffer, termed herein Phage buffer (50mM Tris-HCl buffer pH 7.8, 1 mM MgSO4, 4 mM CaCl2, 0.1 M Nacl, and 0.1% gelatin), resuspended and serially diluted into Phage buffer, and 100 μl of the suspended bacteria were spread on nutrient agar plates. Surviving bacteria were determined by scoring colony forming units (CFU) after incubation for 24-48 hours at 37° C.
The suspensions were incubated for various times ranging from 0.5 to 60 minutes with the bactericides.
Incubations were performed in 20 mM TrisHCl, pH 7.3 at 37° C.

On to monooleate, for which the “% Survival 2 hr” value turned out to be 67% in the assay on Listeria monocytogenes [1] (Nisin 0, Monooleate 0.1%) and 63% with Listeria monocytogenes [1] (Nisin 0, Monooleate 1.0%). Further, the “bactericidal activity towards L. monocytogenes” value in the assay with Listeria monocytogenes [1] (monooleate by itself, in milk) was “no bactericidal activity”.

Consider `CCCCCCCCCCCC(=O)OCC(O)CO` (centres unmarked) [Monolaurin, monolaurin], for which the “% survival at 2h” value in the assay with Streptococcus agalactiae (Nisin 0, Monolaurin 0.01%) is reported as 100%; in the assay with Streptococcus agalactiae (Nisin 0, Monolaurin 0.1%), 4.5%. In the assay with Streptococcus agalactiae (monolaurin at concentrations up to 0.1%, in milk), the “bactericidal activity towards Streptococcus agalactiae” value was “little significant bactericidal activity”.

Consider `O=C(O)CN(CCN(CC(=O)O)CC(=O)O)CC(=O)O` [EDTA], for which the “% survival at 1 min.” value in the assay with E. coli (E. coli, Nisin 0, 1.0 mM EDTA, 20 mM Tris pH 7.0) worked out at 100%. Besides, the “Percentage E. coli Survival at 2 hours” value in the assay with E. coli (Nisin 0, EDTA 20 mM, Triton X-100 0%) is 14.5%. Also, the “% Survival at 2 hours” value is 22% in the assay on K. pneumoniae; 63% in the assay with S. typhimurium (Nisin 0, EDTA 1.0 mM, BSA 1.0%, 20 mM Tris pH 8.0); 38.7% in the assay with S. typhimurium (pH 5.0 (50 mM sodium acetate), Nisin 0, EDTA 2.0 mM); 15.2% in the assay with S. typhimurium (pH 5.0, Nisin 0, EDTA 10 mM); 3.5% with S. typhimurium (pH 5.0, Nisin 0, EDTA 50 mM); 8.7% in the assay on S. typhimurium (pH 8.0 (20 mM Tris), Nisin 0, EDTA 2.0 mM). Further, the “% Survival at 2 hours” value with S. typhimurium (pH 8.0, Nisin 0, EDTA 10 mM) is reported as 14%; with S. typhimurium (pH 8.0, Nisin 0, EDTA 50 mM) it was 11.4%; in the assay on S. typhimurium (pH 8.0, Nisin 0, EDTA 100 mM) it was 45%; in [2] (Table 9, chicken muscle, pH 8.0, Nisin 0, EDTA 1.0 mM, BSA 1.0%), 27%. Moreover, the “% Survival” value with Streptococcus mutans (incubation 3 min) and with Streptococcus mutans (incubation 60 min) was 100% in each case. Further, the “% Survival 2 hr” value in the assay with Coryneform bacteria (pH 8.0, Nisin 0, EDTA 0.3 mM) is recorded as 4.6%; in the assay on Coryneform bacteria (pH 8.0, Nisin 0, EDTA 1.0 mM), 3.6%; with Coryneform bacteria (pH 8.0, Nisin 0, EDTA 3.0 mM), 8%; in the assay on Coryneform bacteria (pH 8.0, Nisin 0, EDTA 10 mM), 36%; with Staphylococcus aureus (pH 5.0, Nisin 0, EDTA 3.0 mM), 100%; with Staphylococcus aureus (pH 8.0, Nisin 0, EDTA 0.3 mM) it was 100%. The “% Survival 2 hr” value in the assay on Staphylococcus aureus (pH 8.0, Nisin 0, EDTA 1.0 mM) amounted to 81%; with Staphylococcus aureus (pH 8.0, Nisin 0, EDTA 3.0 mM), 100%; in the assay with Staphylococcus aureus (pH 8.0, Nisin 0, EDTA 10 mM) it was 100%; in the assay with Staphylococcus aureus (pH 8.0, Nisin 0, EDTA 30 mM), 100%. The “Percentage S. typhimurium Survival at 3 hours” value is listed as 2.5% in the assay on S. typhimurium (Nisin 0, EDTA 20 mM, 20 mM Tris pH 8.0, 37° C) and 2.5% with S. typhimurium (Table 3: Nisin 0, EDTA 20 mM, Tween20 0%, 20 mM Tris pH 8.0). Moreover, the “% Survival at 2 hours (Unadhered cells)” value in [2] (Table 10, chicken muscle, Nisin 0, EDTA 10 mM, Methyl Paraben 0%, 50 mM Na acetate buffer, pH 5.0) turned out to be 11.8%; in assay [2] (chicken muscle, pH 5.0, Nisin 0, EDTA 10 mM), 6.4%; in assay [2] (chicken muscle, pH 8.0, Nisin 0, EDTA 10 mM), 5.2%. Also, the “% Survival after 2 hr” value with Listeria monocytogenes [3] is listed as 84%.

Regarding Triton X-100, in the assay on E. coli (Nisin 0, EDTA 0 mM, Triton X-100 1.0%), the “Percentage E. coli Survival at 2 hours” value stood at 100%. The “bactericidal activity towards E. coli” value in the assay on E. coli (Triton X-100 alone, tests #3 and #4 of Table 4) is on record as “no significant bactericidal activity”.
